The text below walks through data of US20240293391A1, “ISOQUINOLINE AND PYRIDINE BASED CXCR4 ANTAGONISTS” (Katholieke Universiteit Leuven, priority 2021, published 2024).

One may read the pIC50 as −log10 of the IC50, conventionally taken in molar units. What is called CC50 is the concentration giving 50% cytotoxicity. The term pEC50 denotes the EC50 on a negative log10 scale, so that one unit is a factor of ten. A high value points to a small EC50.

In data set [1] the target is T1, CXCR4 (Homo sapiens, UniProt P61073). Put plainly: CXCR4 binding assay (competition with CXCL12^AF647 on Jurkat cells, flow cytometry). The arrangement: endogenous in cells; host or cells: Jurkat cells. On the procedure:
(§1) First, the ability of the compounds to compete with fluorescently labeled CXCL12 (CXCL12^AF647) for binding at CXCR4 was determined. […] Finally, given the role of CXCR4 as a major coreceptor for HIV entry, the antiviral activity of the compounds against the X4-tropic wild type HIV-1 NL4-3 strain and the HIV-2 ROD strain was determined in MT-4 cells. In parallel, the cytotoxicity of the compounds for uninfected MT-4 cells was assessed.
The CXCL12^AF647 binding assay with Jurkat cells has been described previously [Schoofs et al. JoVE 2018, 133, 1-8]. Briefly, Jurkat cells were resuspended in assay buffer [Hank's Balanced Salt Solution (HBSS, Thermo Fisher Scientific), 20 mM HEPES buffer, 0.2% bovine serum albumin (Sigma-Aldrich), pH 7.4] at 3×10^5 cells per sample and then treated with various concentrations of the compound at room temperature for 15 minutes. Afterwards, the cells were incubated with 2.9 nM CXCL12^AF647 (in assay buffer) at room temperature for 30 minutes in the dark. Cells were fixed in 1% paraformaldehyde in DPBS and specific CXCL12^AF647 binding [i.e. mean fluorescence intensity (MFI)] was quantified by flow cytometry (FACSArray™; Becton Dickinson). Data were analyzed with FlowJo® Software. The 50% inhibitory concentration (IC50) was calculated for each compound relative to the negative (i.e. autofluorescence of untreated and unlabeled cells) and positive (i.e. untreated cells exposed to CXCL12^AF647 only) control.

Data set [2] in a line: Cytotoxicity for mock-infected (uninfected) MT-4 cells. The data set is classed as cell-based. The conditions noted are these: human, mock-infected (uninfected) MT-4 cells, Concentration required to reduce the viability of mock-infected MT4 cells by 50%. On the procedure: (§2) First, the ability of the compounds to compete with fluorescently labeled CXCL12 (CXCL12^AF647) for binding at CXCR4 was determined. Secondly, since binding of CXCL12 to CXCR4 results into a transient increase of cytosolic calcium levels, the inhibition of this CXCL12-induced calcium mobilization by the various compounds was also investigated. […] In parallel, the cytotoxicity of the compounds for uninfected MT-4 cells was assessed. […] The anti-HIV assays in MT-4 cells been described in detail before [Hout et al. cited above; […] et al. AIDS 2004, 18, 2115-2125]. […] After five days, the cytopathic effect was checked microscopically and cell viability (i.e. viral replication) was evaluated using the MTS/PES-based CellTiter 96 Aqueous One Solution Cell Proliferation assay (Promega, Fitchburg, WI, USA). Absorbance was recorded using the VersaMax ELISATM microplate reader (Molecular Devices) and analyzed with the Softmax Pro® software (Molecular Devices).

Data set [3] deals with T1, CXCR4. Kind of data set: CXCR4 calcium mobilization assay (CXCL12-induced, U87.CD4.CXCR4 cells, FLIPR). The data set is classed as cell-based. The conditions noted are these: Concentration needed to inhibit CXCL12-induced calcium signaling by 50%. How it is done:
as §1
The calcium mobilization assay has been described in detail previously [Claes et al. JoVE 2018, 132, 1-9]. U87.CD4.CXCR4 cells (2×10^4 cells per well in DMEM/10% FBS/0.01M HEPES) were seeded in gelatin-coated (Sigma-Aldrich; 0.1% gelatin in DPBS) black-walled 96-well plates and incubated overnight at 37° ° C. and 5% CO2. The next day, cells were loaded with the fluorescent calcium indicator Fluo-2 acetoxymethyl (AM) ester (4 μM; Abcam) and incubated at room temperature in the dark for 45 minutes. Then, cells were incubated with various concentrations of the compounds for 10 minutes prior to addition of 6.25 nM CXCL12 (in assay buffer). Fluctuations in intracellular calcium levels were measured in real time by the FLIPR Tetra® (Molecular Devices, Sunnyvale, CA, USA) in all 96 wells simultaneously. The response over baseline (after CXCL12 addition) was calculated with the ScreenWorks 4.0® software (Molecular Devices) by dividing the obtained relative light units (RLUs) through the base line measured just before CXCL12 addition. From this the IC50 value for each compound was determined taking into account the negative (i.e. untreated cells without CXCL12 stimulation) and positive (i.e. untreated cells with CXCL12 addition) control samples.
On the technique in general: Calcium assays in cells follow changes in intracellular calcium, usually with a dye or a luminescent sensor.

The test system of data set [4] is MT-4 cells. Put plainly: Cytotoxicity for mock-infected (uninfected) MT-4 cells. The data set is classed as cell-based. How it is done: as §2
Data set [5] concerns HIV-1 NL4-3. Kind of data set: Anti-HIV assay in MT-4 cells, HIV-1 NL4-3. The data set is classed as cell-based. The conditions noted are these: Human immunodeficiency virus 1, NL43, MT4; Concentration required to achieve 50% protection of MT-4 cells against HIV-induced cytopathicity. On the procedure:
as §2
(In general: Cytopathic effects are the visible damage that an infection or toxin causes in cultured cells.)

The subject of data set [6] is HIV-2 ROD. Put plainly: Anti-HIV assay in MT-4 cells, HIV-2 ROD. The data set is classed as cell-based. The following applies: Human immunodeficiency virus 2, MT4; Concentration required to achieve 50% protection of MT-4 cells against HIV-induced cytopathicity. How it is done:
as §2

Where [7] appears, read: Concentration needed to inhibit CXCL12 receptor binding by 50%, Jurkat cells, mean of at least two independent experiments, read-out: CXCR4 Binding IC50.

pEC50, pIC50: −log10 of the molar value. Where only a bound is given, the exact number is not on record here.

T1 sequence (P61073 whole entry): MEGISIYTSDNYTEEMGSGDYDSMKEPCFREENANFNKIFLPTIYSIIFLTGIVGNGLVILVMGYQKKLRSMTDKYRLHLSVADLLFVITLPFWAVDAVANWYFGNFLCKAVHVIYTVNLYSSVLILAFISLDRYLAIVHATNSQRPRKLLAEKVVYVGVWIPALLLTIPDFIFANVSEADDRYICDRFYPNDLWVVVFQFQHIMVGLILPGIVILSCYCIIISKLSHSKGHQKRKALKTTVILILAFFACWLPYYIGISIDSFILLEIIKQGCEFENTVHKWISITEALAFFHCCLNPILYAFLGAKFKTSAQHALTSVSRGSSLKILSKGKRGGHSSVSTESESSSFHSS

For the compound `COc1cc2ccnc(CN(CCCCN)C3CCCc4cccnc43)c2cc1OC` (stereo not shown) [Compound 19a, N1-((6,7-Dimethoxyisoquinolin-1-yl)methyl)-N1-(5,6,7,8-tetrahydroquinolin-8-yl) butane-1,4-diamine], the pIC50 in data set [1] (setting [7]) was 8.14; in data set [3], 7.60. The CC50 at 5 days in data set [2] was > 100000 nM.
For the compound `COc1ccc2c(CN(CCCCN)C3CCCc4cccnc43)nccc2c1` (stereo not shown) [Compound 19b, N1-((6-Methoxyisoquinolin-1-yl)methyl)-N1-(5,6,7,8-tetrahydroquinolin-8-yl)butane-1,4-diamine], the pIC50 in data set [1] (setting [7]) is 9.60; in data set [3] it was 7.55. For the same compound, the CC50 at 5 days in data set [2] was 11100 nM.
In the case of `NCCCCN(Cc1nccc2cc(F)ccc12)C1CCCc2cccnc21` (stereo not shown) [Compound 19c, N1-((6-Fluoroisoquinolin-1-yl)methyl)-N1-(5,6,7,8-tetrahydroquinolin-8-yl)butane-1,4-diamine], the figures for the pIC50 in data set [1] (setting [7]) and in data set [3] were 8.05 and 7.48, respectively. In data set [2], this compound returned a CC50 at 5 days of 18100 nM.
For the compound `NCCCCN(Cc1nccc2cc(Br)ccc12)C1CCCc2cccnc21` (stereo not shown) [Compound 19d, N1-((6-Bromoisoquinolin-1-yl)methyl)-N1-(5,6,7,8-tetrahydroquinolin-8-yl)butane-1,4-diamine], the pIC50 in data set [1] (setting [7]) is 7.59; in data set [3] it was 6.36. In data set [2], this compound displayed a CC50 at 5 days of 43600 nM.
With `NCCCCN(Cc1nccc2ccccc12)C1CCCc2cccnc21` (stereo not shown) [Compound 19e, N1-(Isoquinolin-1-ylmethyl)-N1-(5,6,7,8-tetrahydroquinolin-8-yl)butane-1,4-diamine], the pIC50 is 8.04 in data set [1] (setting [7]) and 6.89 in data set [3]. The “cytotoxicity for the MT4 cell line” value in data set [4] is listed as “lack cytotoxicity”. In data set [2], the midpoint of cytotoxicity, the CC50 at 5 days, lay at 26700 nM.
Turning to `NCCCCN(Cc1ccccn1)C1CCCc2cccnc21` (stereo not shown) [Compound 20, N1-(Pyridin-2-ylmethyl)-N1-(5,6,7,8-tetrahydroquinolin-8-yl)butane-1,4-diamine], the “cytotoxicity for the MT4 cell line” value in data set [4] is recorded as “lack cytotoxicity”. In data set [2], this compound returned a CC50 at 5 days of 55400 nM.
`COc1cc2ccnc(CN(CCCCN)Cc3ncccc3C)c2cc1OC` [Compound 24a, N1-((6,7-dimethoxyisoquinolin-1-yl)methyl)-N1-((3-methylpyridin-2-yl)methyl) butane-1,4-diamine]: the figures for the pIC50 in data set [1] (setting [7]) and in data set [3] were 8.49 and 7.89, respectively. For the same compound, the “cytotoxicity for the MT4 cell line” value in data set [4] is listed as “lack cytotoxicity”. Moreover, the CC50 at 5 days in data set [2] is > 100000 nM.
Consider `COc1ccc2c(CN(CCCCN)Cc3ncccc3C)nccc2c1` [Compound 24b, N1-((6-Methoxyisoquinolin-1-yl)methyl)-N1-((3-methylpyridin-2-yl)methyl) butane-1,4-diamine], for which the pIC50 was 6.05 in data set [1] (setting [7]) and 5.41 in data set [3]. Also, it took 9270 nM to reach half-maximal cytotoxicity in data set [2] (CC50 at 5 days).
With `Cc1cccnc1CN(CCCCN)Cc1nccc2cc(F)ccc12` [Compound 24c, N1-((6-Fluoroisoquinolin-1-yl)methyl)-N1-((3-methylpyridin-2-yl)methyl) butane-1,4-diamine], the pIC50 in data set [1] (setting [7]) is 9.19; in data set [1] (span over all assays (binding, calcium, HIV-1, HIV-2), read-out: IC50 values in all assays) it was 8.22 to 9.22; in data set [3], 8.21. Further, the “cytotoxicity for the MT4 cell line” value in data set [4] was “lack cytotoxicity”. The compound further gave a CC50 in data set [4] (Concentration required to reduce the viability of mock-infected MT4 cells by 50%) of 30800 nM. The CC50 at 5 days in data set [2] worked out at 31000 nM.
`Cc1cccnc1CN(CCCCN)Cc1nccc2cc(Br)ccc12` [Compound 24d, N1-((6-Bromoisoquinolin-1-yl)methyl)-N1-((3-methylpyridin-2-yl)methyl) butane-1,4-diamine]: the figures for the pIC50 in data set [1] (setting [7]) and in data set [3] were 7.41 and 6.16, respectively. In addition, the CC50 at 5 days in data set [2] came to 29500 nM.
In data set [2], `Cc1cccnc1CN(CCCCN)Cc1ccccn1` [Compound 25, N1-((3-Methylpyridin-2-yl)methyl)-N1-(pyridin-2-ylmethyl)butane-1,4-diamine] came in with a CC50 at 5 days of 79800 nM. In addition, the pIC50 in data set [3] is 6.74.
Turning to `NCCCCN(Cc1ccccc1)c1cccc2cccnc12` [Compound 31a, N^1-benzyl-N^1-(quinolin-8-yl)butane-1,4-diamine], the negative-log IC50 (pIC50) is < 4.00 in data set [1] (setting [7]) and < 4.30 in data set [3]. Moreover, the pEC50 in data set [5] and in data set [6] was < 4.38 each time. The compound also came in with a CC50 at 5 days in data set [2] of 41600 nM.
Regarding `NCCCCN(Cc1ccccn1)c1cccc2cccnc12` [Compound 31b, N^1-(pyridin-2-ylmethyl)-N^1-(quinolin-8-yl)butane-1,4-diamine], the values for the pIC50 in data set [1] (setting [7]) and in data set [3] were 7.44 and 5.26, respectively. The values for the pEC50 in data set [5] and in data set [6] were 6.42 and < 5.02, respectively. This compound also gave a CC50 at 5 days in data set [2] of 9460 nM.
As to `NCCCCN(Cc1nccc2ccccc12)c1cccc2cccnc12` [Compound 31c, N^1-(isoquinolin-1-ylmethyl)-N^1-(quinolin-8-yl)butane-1,4-diamine], the pIC50 in data set [1] (setting [7]) is 8.64; in data set [3] it was 8.30. The pEC50 is 7.74 in data set [5] and 8.89 in data set [6]. In data set [2], this compound came in with a CC50 at 5 days of 2980 nM.
For the compound `c1cc(CN2CCCNCCNCCCNCC2)ccc1CN1CCCNCCNCCCNCC1` [Plerixafor, reference compound], the CC50 at 5 days in data set [2] is 6290 nM.
